Assay results as given in ChEMBL document CHEMBL3044921, “Synthesis, characterization, and SAR studies of new (1H-indol-3-yl)alkyl-3-(1H-indol-3-yl)propanamide derivatives as possible antimicrobial and antitubercular agents” (2013).
Values after ≈ are worked out from the molar mass of the structure shown.

How the values were obtained:
Talaromyces marneffei [1] = assay: Antifungal activity against Talaromyces marneffei assessed as growth inhibition at […] to […] ug/ml after 3 to 4 days by agar well diffusion method; type: functional
Aspergillus fumigatus [2] = assay: Antifungal activity against Aspergillus fumigatus NCIM 902 assessed as growth inhibition at […] to […] ug/ml after 3 to 4 days by agar well diffusion method; type: functional
Aspergillus flavus [3] = assay: Antifungal activity against Aspergillus flavus NCIM 524 assessed as growth inhibition at […] to […] ug/ml after 3 to 4 days by agar well diffusion method; type: functional
Candida albicans [4] = assay: Antifungal activity against Candida albicans assessed as growth inhibition after 3 to 4 days by serial plate dilution method; type: functional
[5] = test system: Trichophyton mentagrophytes; assay: Antifungal activity against Trichophyton mentagrophytes assessed as growth inhibition after 3 to 4 days by serial plate dilution method; type: functional
Talaromyces marneffei [6] = assay: Antifungal activity against Talaromyces marneffei assessed as growth inhibition after 3 to 4 days by serial plate dilution method; type: functional
Aspergillus fumigatus [7] = assay: Antifungal activity against Aspergillus fumigatus NCIM 902 assessed as growth inhibition after 3 to 4 days by serial plate dilution method; type: functional
Aspergillus flavus [8] = assay: Antifungal activity against Aspergillus flavus NCIM 524 assessed as growth inhibition after 3 to 4 days by serial plate dilution method; type: functional
Streptococcus pyogenes [9] = type: functional
Description: Antibacterial activity against Streptococcus pyogenes assessed as growth inhibition at 1.56 to 25 ug/ml after 3 to 4 days by agar well diffusion method

Klebsiella pneumoniae [10] = type: functional
Description: Antibacterial activity against Klebsiella pneumoniae assessed as growth inhibition at 1.56 to 25 ug/ml after 3 to 4 days by agar well diffusion method

Pseudomonas aeruginosa [11] = type: functional, ATCC 27853
Description: Antibacterial activity against Pseudomonas aeruginosa ATCC 27853 assessed as growth inhibition at 1.56 to 25 ug/ml after 3 to 4 days by agar well diffusion method

Staphylococcus aureus [12] = type: functional, ATCC 25923
Description: Antibacterial activity against Staphylococcus aureus ATCC 25923 assessed as growth inhibition at 1.56 to 25 ug/ml after 3 to 4 days by agar well diffusion method

Streptococcus pyogenes [13] = assay: Antibacterial activity against Streptococcus pyogenes assessed as growth inhibition after 16 to 18 hr by serial plate dilution method; type: functional
[14] = test system: Mycobacterium tuberculosis; assay: Antitubercular activity against Mycobacterium tuberculosis H37Rv ATCC 27294 assessed as growth inhibition at 0.3125 to 5 ug/mL after 7 days by resazurin reduction test; type: functional; settings: H37Rv ATCC 27294, 168 h
[15] = test system: Mycolicibacterium smegmatis; assay: Antitubercular activity against Mycobacterium smegmatis ATCC 19420 assessed as growth inhibition at 1 to 100 ug/mL after 7 days by resazurin reduction test; type: functional; settings: ATCC 19420, 168 h
[16] = test system: Mycolicibacterium fortuitum; assay: Antitubercular activity against Mycobacterium fortuitum ATCC 19542 assessed as growth inhibition at 1 to 100 ug/mL after 7 days by resazurin reduction test; type: functional; settings: ATCC 19542, 168 h
[17] = test system: Mycobacterium tuberculosis; assay: Antitubercular activity against Mycobacterium tuberculosis H37Rv ATCC 27294 assessed as growth inhibition at 1 to 100 ug/mL after 7 days by resazurin reduction test; type: functional; settings: for MIC: Mycobacterium tuberculosis, H37Rv ATCC 27294, 168 h
Candida albicans [18] = assay: Antifungal activity against Candida albicans assessed as growth inhibition at […] to […] ug/ml after 3 to 4 days by agar well diffusion method; type: functional
[19] = test system: Trichophyton mentagrophytes; assay: Antifungal activity against Trichophyton mentagrophytes assessed as growth inhibition at […] to […] ug/ml after 3 to 4 days by agar well diffusion method; type: functional
Klebsiella pneumoniae [20] = assay: Antibacterial activity against Klebsiella pneumoniae assessed as growth inhibition after 16 to 18 hr by serial plate dilution method; type: functional
Pseudomonas aeruginosa [21] = assay: Antibacterial activity against Pseudomonas aeruginosa ATCC 27853 assessed as growth inhibition after 16 to 18 hr by serial plate dilution method; type: functional
Escherichia coli [22] = assay: Antibacterial activity against Escherichia coli […] assessed as growth inhibition after 16 to 18 hr by serial plate dilution method; type: functional
Staphylococcus aureus [23] = assay: Antibacterial activity against Staphylococcus aureus ATCC 25923 assessed as growth inhibition after 16 to 18 hr by serial plate dilution method; type: functional
Escherichia coli [24] = type: functional, ATCC 24922
Description: Antibacterial activity against Escherichia coli ATCC 24922 assessed as growth inhibition at 1.56 to 25 ug/ml after 3 to 4 days by agar well diffusion method

| SMILES | diameter of the inhibition zone (DIZ) (Talaromyces marneffei [1]) | diameter of the inhibition zone (DIZ) (Aspergillus fumigatus [2]) | diameter of the inhibition zone (DIZ) (Aspergillus flavus [3]) | MIC (Candida albicans [4]) | MIC [5] | MIC (Talaromyces marneffei [6]) | MIC (Aspergillus fumigatus [7]) | MIC (Aspergillus flavus [8]) | diameter of the inhibition zone (DIZ) (Streptococcus pyogenes [9]) | diameter of the inhibition zone (DIZ) (Klebsiella pneumoniae [10]) | diameter of the inhibition zone (DIZ) (Pseudomonas aeruginosa [11]) | diameter of the inhibition zone (DIZ) (Staphylococcus aureus [12]) | MIC (Streptococcus pyogenes [13]) | MIC [15] | MIC [16] | growth inhibition (GI) [17] | MIC [17] | diameter of the inhibition zone (DIZ) (Candida albicans [18]) | diameter of the inhibition zone (DIZ) [19] | MIC (Klebsiella pneumoniae [20]) | also measured |
| --- | --- | --- | --- | --- | --- | --- | --- | --- | --- | --- | --- | --- | --- | --- | --- | --- | --- | --- | --- | --- | --- |
| Cc1c(CCCNC(=O)CCc2cn(C)c3ccc(Cl)cc23)c2cc(OC(F)(F)F)ccc2n1C | 16 mm | 11 mm | 16 mm | 25 µg/mL (≈ 49.4 µM) | 12.5 µg/mL (≈ 24.7 µM) | 6.25 µg/mL (≈ 12.4 µM) | 12.5 µg/mL (≈ 24.7 µM) | 6.25 µg/mL (≈ 12.4 µM) | <10 mm | 11 mm | <10 mm | 11 mm | 25 µg/mL (≈ 49.4 µM) | > 100 µg/mL | > 100 µg/mL | <90% | 10 µg/mL (≈ 19.8 µM) | <10 mm | 11 mm | 12.5 µg/mL (≈ 24.7 µM) | MIC [14]: 1.25 µg/mL (≈ 2.47 µM); MIC (Pseudomonas aeruginosa [21]): 25 µg/mL (≈ 49.4 µM); MIC (Escherichia coli [22]): 12.5 µg/mL (≈ 24.7 µM); MIC (Staphylococcus aureus [23]): 12.5 µg/mL (≈ 24.7 µM); diameter of the inhibition zone (DIZ) (Escherichia coli [24]): 11 mm |
| Cc1cc(C2CCCCC2)n(O)c(=O)c1.NCCO [CICLOPIROX OLAMINE] | 20 mm | 25 mm | 25 mm | 6.25 µg/mL | 6.25 µg/mL | 6.25 µg/mL | 6.25 µg/mL | 6.25 µg/mL | – | – | – | – | – | – | – | – | – | 20 mm | 27 mm | – | – |
| Cc1c(CNC(=O)CCc2c[nH]c3ccc(Cl)cc23)c2cc(OC(F)(F)F)ccc2n1C | 11 mm | 11 mm | 11 mm | 6.25 µg/mL (≈ 13.5 µM) | 12.5 µg/mL (≈ 26.9 µM) | 12.5 µg/mL (≈ 26.9 µM) | 12.5 µg/mL (≈ 26.9 µM) | 12.5 µg/mL (≈ 26.9 µM) | <10 mm | <10 mm | 16 mm | 16 mm | 25 µg/mL (≈ 53.9 µM) | 10 µg/mL (≈ 21.6 µM) | > 100 µg/mL | <90% | > 100 µg/mL | 16 mm | 11 mm | 25 µg/mL (≈ 53.9 µM) | MIC [14]: 5 µg/mL (≈ 10.8 µM); MIC (Pseudomonas aeruginosa [21]): 6.25 µg/mL (≈ 13.5 µM); MIC (Escherichia coli [22]): 12.5 µg/mL (≈ 26.9 µM); MIC (Staphylococcus aureus [23]): 6.25 µg/mL (≈ 13.5 µM); diameter of the inhibition zone (DIZ) (Escherichia coli [24]): 11 mm |
| O=C(CCc1c[nH]c2ccc(Cl)cc12)NCCCc1c[nH]c2ccc(Cl)cc12 | 16 mm | 16 mm | 16 mm | 6.25 µg/mL (≈ 15.1 µM) | 6.25 µg/mL (≈ 15.1 µM) | 6.25 µg/mL (≈ 15.1 µM) | 6.25 µg/mL (≈ 15.1 µM) | 6.25 µg/mL (≈ 15.1 µM) | 16 mm | <10 mm | <10 mm | <10 mm | 6.25 µg/mL (≈ 15.1 µM) | > 100 µg/mL | > 100 µg/mL | 0% | > 100 µg/mL | 16 mm | 16 mm | 25 µg/mL (≈ 60.3 µM) | MIC (Pseudomonas aeruginosa [21]): 25 µg/mL (≈ 60.3 µM); MIC (Escherichia coli [22]): 25 µg/mL (≈ 60.3 µM); MIC (Staphylococcus aureus [23]): 25 µg/mL (≈ 60.3 µM); diameter of the inhibition zone (DIZ) (Escherichia coli [24]): <10 mm |
| O=C(O)c1cn(C2CC2)c2cc(N3CCNCC3)c(F)cc2c1=O [CIPROFLOXACIN] | – | – | – | – | – | – | – | – | 23 mm | 21 mm | 16 mm | 30 mm | 6.25 µg/mL (≈ 18.9 µM) | – | – | – | – | – | – | 1.56 µg/mL (≈ 4.71 µM) | – |
